From US9156824B2, “CDC7 inhibitors” (Eli Lilly and Company, priority 2013, dated 2015)

Test system: phosphorylated MCM2 at Serine 53 (pMCM2-S53) in H1299 cells
Assay: Acumen imaging assay for detection of phosphorylated MCM2 in H1299 cells
Assay type: cell-based
Details: 4 hours treatment, Hydrate, read-out: IC50, inhibition of pMCM2-S53
Description: The Acumen® eX3 is used to determine the effect of compounds on the formation of endogenous phosphorylated MCM2 at Serine 53 (pMCM2-S53). Phosphorylation of MCM2 by CDC7 is determined using specific anti-pMCM2-S53 antibody and quantified with fluorescent tagged secondary antibodies by Acumen® eX3 to monitor CDC7 activity in cells. Phosphorylation of MCM2 at Serine 53 is known to be correlated to CDC7 inhibition.
H1299 cells (ATCC #CRL-5803) are maintained in RPMI-1640 (Hyclone SH30809.01) growth medium supplemented with 10% FBS. Cells are harvested using standard cell culture procedures and then counted using Vi-Cell XR Cell Viability Analyzer (Beckman Counter). 3000-6000 H1299 cells in 100 μL of growth medium are plated into each well of Biocoat Poly-D-Lysine 96-well black/clear plate with flat bottom BioCoat™ Multiwell (Becton Dickinson) cell culture plates 356640 and incubated overnight at 37° C., 5% CO2.
Cells are treated with the test compound (50 μL/well) diluted in medium containing 0.6% DMSO and incubated for 4 hours at 37° C. To each well is added 7.4% formaldehyde (150 μL) diluted with PBS from 37% formaldehyde stock and the plates are incubated at room temperature for 30 minutes. Formaldehyde is removed and cold methanol (100 μL) is added. The plates are incubated for 20 minutes at 4° C. to permeabilize the cells. Plates are washed 3× with 100 μL/well of PBS. […] The plates are sealed with black seal and are read on the Acumen® eX3 (TTP LABTECH) using optical filter 500-530 nanometer and 575-640 nanometer for Alexa Fluor 488 and propidium iodide, respectively. The number of pMCM2-S53 positive cells is normalized to total cells for each well and are calculated as percent inhibition relative to on-plate controls. […]

Compound `CC1(c2ncncc2F)NC(=O)c2cc(-c3cn[nH]c3)ccc21` (single isomer, unassigned; isomer 2) [Example 4, 3-(5-Fluoropyrimidin-4-yl)-3-methyl-6-(1H-pyrazol-4-yl)isoindolin-1-one, Isomer 2, Hydrate] has an IC50 of 290 nM.
